{
  "source": "patent US20200128823A1",
  "about": "“ALGICIDAL, ALGISTATIC, HERBICIDAL AND HERBISTATIC TREATMENT OF WATER” (priority 2017, published 2020)",
  "key": {"[1]": {"conditions": "cited from earlier work"}, "[2]": {"assay": "Previous experiments: dissolution in water of a composition of gallic acid alone", "assay_type": "physicochemical", "conditions": "composition composed only of gallic acid, no excipient", "excerpt": "In order to avoid this problem, excipients of different nature but without algicidal, algistatic, herbicidal or herbistatic effect are preferably added. The excipients are desirable to allow a rapid descent on the bottom of the various conditioning, the dissolution of the active substance or optionally of the active substances and secondly to create a stratum of a density greater than that of the water by a thickening action."}},
  "note": "Read-outs that look alike come from different tables or passages of the source.",
  "data": [
    {"smiles": "O=C(O)/C=C/c1ccc(O)c(O)c1", "note": "[Caffeic Acid, (E) 3-(3,4-dihydroxyphenyl)prop-2-enoic acid]", "values": [
      {"measurement": "Solubility in water (in words)", "setting": "[1]; water", "result": "poorly soluble in water"}
    ]},
    {"smiles": "Oc1ccc(/C=C/c2cc(O)cc(O)c2)cc1", "note": "[Resveratrol, 5-[(E)-2-(4-hydroxyphenyl)-ethenyl] benzene-1,3-diol]", "values": [
      {"measurement": "Solubility", "setting": "[1]; DMSO", "result": "~16", "unit": "mg/mL"},
      {"measurement": "Solubility", "setting": "[1]; ethanol", "result": 50, "unit": "mg/mL"},
      {"measurement": "Solubility", "setting": "[1]; water", "result": "~0.03", "unit": "mg/mL"}
    ]},
    {"smiles": "O=c1c(O)c(-c2ccc(O)c(O)c2)oc2cc(O)cc(O)c12", "note": "[Quercetin, 2-(3,4-dihydroxyphenyl)-3,5,7-trihydroxy-4H-chromen-4-one]", "values": [
      {"measurement": "Solubility", "setting": "[1]; water", "result": 0.06, "unit": "mg/mL"}
    ]},
    {"smiles": "Oc1cccc(O)c1O", "note": "[Pyrogallic Acid, pyrogallol]", "values": [
      {"measurement": "Solubility in water", "setting": "[1]; at 20° C.", "result": 588.00, "unit": "mg/mL"}
    ]},
    {"smiles": "O.O=C(O)c1cc(O)c(O)c(O)c1", "note": "[Gallic Acid Monohydrate]", "values": [
      {"measurement": "Solubility", "setting": "[1]; water at 20° C.", "result": 15, "unit": "mg/mL"}
    ]},
    {"smiles": "O=c1oc2c(O)c(O)cc3c(=O)oc4c(O)c(O)cc1c4c23", "note": "[Ellagic Acid, 2,3,7,8-Tetrahydroxy(1)benzopyrano (5,4,3-cde)-(1)benzopyran-5,10-dione]", "values": [
      {"measurement": "Solubility", "setting": "[1]; at 21° C.", "result": "< 1", "unit": "mg/mL"}
    ]},
    {"smiles": "O=C(O)c1cc(O)c(O)c(O)c1", "note": "[Non-Hydrated Gallic Acid, 3,4,5-trihydroxybenzoic acid]", "values": [
      {"measurement": "Dissolution in water", "setting": "[2]", "result": "does not dissolve or is very difficult to dissolve in water"}
    ]}
  ]
}
